Reference: patent US20260248811A1, “COMPOSITIONS FOR TREATING AN INDIVIDUAL FOR IMPROVEMENT OF COGNITIVE FUNCTIONS” (priority 2023, published 2026)

How the values were obtained:
[1] = intranasal administration; cited from earlier work
[2] = sublingually with cyclodextrins (women about 0.1-2 mg; men about 0.5-20 mg); cited from earlier work
[3] = Total and free testosterone in blood plasma 15 minutes after sublingual intake of the androgen(s); assay type: in vivo, human; conditions: measured not calculated, 5 mg T or 5 mg T + 5 mg DHT
Procedure: Testosterone (T) vs. testosterone and dihydrotestosterone (T+DHT) The first example concerns two male heterosexual patients. Two alternative forms of testosterone administration were considered for a treatment. The first treatment involved taking 5 mg sublingual testosterone (T) (solution consisting of alcohol, denaturalized water, testosterone and cyclodextrins). The second consisted of simultaneously taking 5 mg sublingual testosterone and 5 mg sublingual dihydrotestosterone (DHT) (solution consisting of alcohol, denaturalized water, DHT and cyclodextrins). The testosterone and DHT solutions were prepared by a pharmacist on the request of a general practitioner. Subsequently, the changes in total testosterone and free testosterone in blood plasma were examined, 15 minutes after intake of the androgen(s).
The table below describes the effects of the different treatments on ‘total testosterone’ and ‘free testosterone (i.e. measured, not calculated)’ for both patients:
This is consistent with the assumption that SHBG becomes more saturated as a result of the binding of DHT to SHBG. This means that the ingested testosterone can no longer bind to SHBG, and consequently there will be a greater increase in unbound testosterone (i.e. free testosterone). […] Total testosterone and free testosterone were measured 15 minutes after the administration of T and (T&DHT). dysfunction/disorder

SMILES	Return of oxytocin levels to baseline [1]	T-max of oxytocin levels in the blood circulation [1]	Time to pharmacological peak in testosterone and free testosterone [2]	Free T ([3]; Patient 1, blood plasma)	Free T ([3]; Patient 2, blood plasma)
CC[C@H](C)[C@@H]1NC(=O)[C@H](Cc2ccc(O)cc2)NC(=O)[C@@H](N)CSSC[C@@H](C(=O)N2CCC[C@H]2C(=O)N[C@@H](CC(C)C)C(=O)NCC(N)=O)NC(=O)[C@H](CC(N)=O)NC(=O)[C@H](CCC(N)=O)NC1=O [oxytocin]	approximately 90 minutes	approximately 15 minutes	–	–	–
C[C@]12CC[C@H]3[C@@H](CCC4=CC(=O)CC[C@@]43C)[C@@H]1CC[C@@H]2O [T, 17-β-hydroxyandrost-4-en-3-one]	–	–	about 15 minutes	440 pml/L	1030 pml/L
